According to patent US20100048549A1, “Peptidomimetics selective for the somatostatin receptor subtypes 1 and/or 4” (priority 2005, published 2010):
Like-named read-outs stand apart in the source and are kept apart here.

Legend:
[1] = biological target: T1, human somatostatin receptor subtype sst3 (Homo sapiens, UniProt P32745); assay: Competition binding with 125I-LTT-SRIF-28, CHO cell membranes, sst3; conditions: membranes of CHO cells transfected with human sst3
T1 construct: expressed in transfected cells; host or cells: CHO cells (membranes)
T1 sequence (P32745 whole entry): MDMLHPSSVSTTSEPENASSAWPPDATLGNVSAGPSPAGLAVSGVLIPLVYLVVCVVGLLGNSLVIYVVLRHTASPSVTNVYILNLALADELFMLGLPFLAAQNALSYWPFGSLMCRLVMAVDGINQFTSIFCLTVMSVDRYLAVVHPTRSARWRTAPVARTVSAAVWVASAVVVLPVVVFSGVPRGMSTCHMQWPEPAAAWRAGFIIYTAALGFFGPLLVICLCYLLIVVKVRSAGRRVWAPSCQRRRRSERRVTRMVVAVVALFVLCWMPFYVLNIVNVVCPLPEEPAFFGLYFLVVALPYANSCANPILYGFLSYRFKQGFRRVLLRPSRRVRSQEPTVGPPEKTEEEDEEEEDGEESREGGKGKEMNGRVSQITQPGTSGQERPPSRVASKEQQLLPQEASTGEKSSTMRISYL
Description: (§1) The affinity of the compounds of the invention for the five human somatostatin receptor subtypes (sst1, sst2, sst3, sst4, and sst5) was determined in competition binding assays with (^125I-Tyr)-[Leu^8, DTrp^22]-Somatostatin-28 (^125I-LTT-SRIF-28). The biological material for these experiments consisted of membranes from Chinese hamster ovary (CHO) cells stably transfected with one of the five human somatostatin receptor subtypes. Membranes (3-20 μg of total protein per sample) and trace amount of ^125I-LTT-SRIF-28 were incubated in 10 mM Hepes, 1 mM EDTA, 5 mM MgCl2, 5 mg/ml of BSA and 30 μg/ml bacitracin, pH 7.6, with six concentrations of the compounds. Each concentration was run in duplicate. Nonspecific binding was defined by 1 μM somatostatin-14 (SRIF-14) and corresponded to 5-25% of total binding. After 60 min at room temperature, incubations were terminated by rapid vacuum filtration through GF/B glass fiber filter mats (presoaked at 4° C. in 200 ml of 10 mM Hepes, 1 mM EDTA, 5 mM MgCl2, pH 7.6) and three 5 ml washes with ice-cold wash buffer (20 mM TRIS, 1 mM EDTA, 5 mM MgCl2, pH 7.4). The filters were then dried, impregnated with scintillate and their radioactivity was measured by scintillation counting. […] Affinity constants (Ki) were calculated from the IC50 values according to the Cheng-Prusoff's equation (Cheng and Prusoff, 1973). […]

[2] = biological target: T2, human somatostatin receptor subtype sst5 (Homo sapiens, UniProt P35346); assay: Competition binding with 125I-LTT-SRIF-28, CHO cell membranes, sst5; conditions: membranes of CHO cells transfected with human sst5
T2 construct: expressed in transfected cells; host or cells: CHO cells (membranes)
T2 sequence (P35346 whole entry): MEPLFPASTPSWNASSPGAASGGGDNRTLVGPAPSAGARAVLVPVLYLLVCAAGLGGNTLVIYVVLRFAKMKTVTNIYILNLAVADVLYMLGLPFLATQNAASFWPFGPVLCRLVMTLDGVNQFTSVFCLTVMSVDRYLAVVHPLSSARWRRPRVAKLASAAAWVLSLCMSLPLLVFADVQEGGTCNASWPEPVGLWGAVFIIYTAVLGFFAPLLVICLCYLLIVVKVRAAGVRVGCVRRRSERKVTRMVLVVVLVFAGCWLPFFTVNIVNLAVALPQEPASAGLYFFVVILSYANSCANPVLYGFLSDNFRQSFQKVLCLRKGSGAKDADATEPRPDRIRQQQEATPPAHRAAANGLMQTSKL
Description: as §1

[3] = biological target: T3, human somatostatin receptor subtype sst2 (Homo sapiens, UniProt P30874); assay: Competition binding with 125I-LTT-SRIF-28, CHO cell membranes, sst2; conditions: membranes of CHO cells transfected with human sst2
T3 construct: expressed in transfected cells; host or cells: CHO cells (membranes)
T3 sequence (P30874 whole entry): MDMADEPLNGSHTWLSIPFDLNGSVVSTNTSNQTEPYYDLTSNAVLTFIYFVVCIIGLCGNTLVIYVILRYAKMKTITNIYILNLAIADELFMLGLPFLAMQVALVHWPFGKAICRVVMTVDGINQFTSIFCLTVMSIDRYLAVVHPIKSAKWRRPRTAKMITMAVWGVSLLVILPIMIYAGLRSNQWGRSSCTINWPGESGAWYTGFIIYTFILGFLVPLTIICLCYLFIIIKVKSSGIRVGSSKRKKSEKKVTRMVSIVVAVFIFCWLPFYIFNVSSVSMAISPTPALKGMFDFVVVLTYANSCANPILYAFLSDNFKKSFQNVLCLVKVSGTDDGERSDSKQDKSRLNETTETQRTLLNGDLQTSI
Description: as §1

[4] = biological target: T4, human somatostatin receptor subtype sst1 (Homo sapiens, UniProt P30872); assay: Competition binding with 125I-LTT-SRIF-28, CHO cell membranes, sst1
T4 construct: expressed in transfected cells; host or cells: CHO cells (membranes)
T4 sequence (P30872 whole entry): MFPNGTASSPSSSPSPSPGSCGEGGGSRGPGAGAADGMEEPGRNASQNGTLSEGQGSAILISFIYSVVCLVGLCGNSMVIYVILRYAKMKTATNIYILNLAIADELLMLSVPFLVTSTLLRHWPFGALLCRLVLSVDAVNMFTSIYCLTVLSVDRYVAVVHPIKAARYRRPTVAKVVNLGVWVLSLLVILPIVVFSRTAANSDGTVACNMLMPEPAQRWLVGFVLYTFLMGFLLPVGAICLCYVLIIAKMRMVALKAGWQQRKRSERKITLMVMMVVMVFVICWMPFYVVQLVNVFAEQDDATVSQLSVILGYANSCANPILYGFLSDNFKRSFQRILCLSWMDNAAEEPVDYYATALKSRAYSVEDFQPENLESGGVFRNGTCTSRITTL
Description: (§2) The affinity of the compounds of the invention for the five human somatostatin receptor subtypes (sst1, sst2, sst3, sst4, and sst5) was determined in competition binding assays with (^125I-Tyr)-[Leu^8, DTrp^22]-Somatostatin-28 (^125I-LTT-SRIF-28). The biological material for these experiments consisted of membranes from Chinese hamster ovary (CHO) cells stably transfected with one of the five human somatostatin receptor subtypes. Membranes (3-20 μg of total protein per sample) and trace amount of ^125I-LTT-SRIF-28 were incubated in 10 mM Hepes, 1 mM EDTA, 5 mM MgCl2, 5 mg/ml of BSA and 30 μg/ml bacitracin, pH 7.6, with six concentrations of the compounds. Each concentration was run in duplicate. Nonspecific binding was defined by 1 μM somatostatin-14 (SRIF-14) and corresponded to 5-25% of total binding. After 60 min at room temperature, incubations were terminated by rapid vacuum filtration through GF/B glass fiber filter mats (presoaked at 4° C. in 200 ml of 10 mM Hepes, 1 mM EDTA, 5 mM MgCl2, pH 7.6) and three 5 ml washes with ice-cold wash buffer (20 mM TRIS, 1 mM EDTA, 5 mM MgCl2, pH 7.4). The filters were then dried, impregnated with scintillate and their radioactivity was measured by scintillation counting. The analysis of the experiments was carried out by nonlinear least square curve fitting. Affinity constants (Ki) were calculated from the IC50 values according to the Cheng-Prusoff's equation (Cheng and Prusoff, 1973). Experiments were repeated a minimum of three times.

[5] = biological target: T5, human somatostatin receptor subtype sst4 (Homo sapiens, UniProt P31391); assay: Competition binding with 125I-LTT-SRIF-28, CHO cell membranes, sst4
T5 construct: expressed in transfected cells; host or cells: CHO cells (membranes)
T5 sequence (P31391 whole entry): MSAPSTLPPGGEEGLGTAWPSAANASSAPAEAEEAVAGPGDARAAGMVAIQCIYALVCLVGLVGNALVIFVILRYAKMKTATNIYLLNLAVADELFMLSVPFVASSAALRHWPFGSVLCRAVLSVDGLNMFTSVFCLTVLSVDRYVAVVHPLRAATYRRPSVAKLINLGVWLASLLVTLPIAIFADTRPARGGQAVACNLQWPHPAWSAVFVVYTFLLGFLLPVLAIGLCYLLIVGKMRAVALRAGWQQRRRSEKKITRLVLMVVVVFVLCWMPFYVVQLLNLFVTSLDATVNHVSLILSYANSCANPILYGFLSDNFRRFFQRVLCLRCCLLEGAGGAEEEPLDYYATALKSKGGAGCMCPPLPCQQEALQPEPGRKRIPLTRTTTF
Description: as §2

[6] = clinical trials; Eriksen et al. 1995, van Essen et al. 1997; cited from earlier work
[7] = bound only, read-out: Ki values for the sst1
[8] = membranes of CHO cells transfected with human sst1, read-out: sst1 Ki
[9] = bound only, read-out: Ki values for the sst4
[10] = membranes of CHO cells transfected with human sst4, read-out: sst4 Ki

Row | SMILES | Ki [1] | Ki [2] | Ki [3] | Ki [4, 7] | Ki [4, 8] | Ki [5, 9] | Ki [5, 10] | efficacy in prevention of restenosis [6]
1 | Cc1ccc(S(=O)(=O)N[C@@H](CCCNC(C)C)COc2ccccc2)c2ccccc12 [compound 33, (S)-4-methylnaphthalene-1-sulfonic acid (4-isopropylamino-1-phenoxymethylbutyl)amide] | > 3000 nM | > 3000 nM | > 10000 nM | < 300 nM | 9.6 ± 0.5 nM | < 300 nM | 110 ± 10 nM | –
2 | CC(C)[C@@H]1NC(=O)[C@H](CCCCN)NC(=O)[C@@H](Cc2c[nH]c3ccccc23)NC(=O)[C@H](Cc2ccc(O)cc2)NC(=O)[C@@H](NC(=O)[C@H](N)Cc2ccc3ccccc3c2)CSSC[C@@H](C(=O)N[C@H](C(N)=O)[C@@H](C)O)NC1=O [lanreotide] | – | – | – | – | – | – | – | failed to show efficacy
3 | Cc1ccc(S(=O)(=O)N[C@@H](CCN)CNCc2ccccc2)c2ccccc12 [compound 2, (S)-4-methylnaphthalene-1-sulfonic acid (3-amino-1-benzyl-aminomethylpropyl)amide] | > 3000 nM | > 3000 nM | > 10000 nM | – | 200 ± 60 nM | – | 5.6 ± 3.2 nM | –
4 | Cc1ccc(S(=O)(=O)N[C@@H](CCNC(=N)N)COCc2ccccc2)c2ccccc12 [compound 4, (S)-4-methylnaphthalene-1-sulfonic acid (1-benzyloxymethyl-3-guanidinylpropyl)amide] | – | – | – | < 300 nM | – | < 300 nM | – | –
5 | C[C@@H](O)[C@@H]1NC(=O)[C@H](CCCCN)NC(=O)[C@@H](Cc2c[nH]c3ccccc23)NC(=O)[C@H](Cc2ccccc2)NC(=O)[C@@H](NC(=O)[C@H](N)Cc2ccccc2)CSSC[C@@H](C(=O)N[C@H](CO)[C@@H](C)O)NC1=O [octreotide] | – | – | – | – | – | – | – | failed to show efficacy
6 | Cc1ccc(S(=O)(=O)N[C@@H](CCCN)COCc2ccccc2)c2ccccc12 [compound 15, (S)-4-methyl-naphthalene-1-sulfonic acid (4-amino-1-benzyloxymethylbutyl)amide] | – | – | – | < 300 nM | – | < 300 nM | – | –
